Source: US9376425B2, “Heterocyclic compounds as MDM2 inhibitors for the treatment of cancer” (AMGEN INC., priority 2011, dated 2016)

Target: T1, human MDM2 (GST-hMDM2 1-188), interaction with biotinylated-p53 (1-83) (Homo sapiens, UniProt Q00987)
T1 construct: Amino acid residues 1-188 of human MDM2 were expressed; made in house; host or cells: Escherichia coli
Assay: improved HTRF assay (HTRF2 assay), inhibition of HDM2-p53 interaction
Format: binding
Conditions: 0.2 nM GST-hMDM2, 0.5 nM biotinylated-p53, 100 mM KF
Procedure, shortened: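 Time-resolved fluorescence (HTRF) read after >4 h equilibration with SA-XLent/anti-GST cryptate/KF detection reagents. Reaction: compound plus GST-hMDM2 for 20 min at room temperature, then E. coli-expressed biotinylated p53 residues 1-83 for 60 min, 2% DMSO final. Inhibition expressed versus nutlin-3.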

T1 sequence (Q00987 1-188): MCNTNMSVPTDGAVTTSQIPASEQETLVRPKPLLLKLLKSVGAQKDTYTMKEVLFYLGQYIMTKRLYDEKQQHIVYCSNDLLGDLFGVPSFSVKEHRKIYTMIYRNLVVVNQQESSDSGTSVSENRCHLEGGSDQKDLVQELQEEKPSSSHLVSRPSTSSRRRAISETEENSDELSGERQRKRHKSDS

SMILES	IC50 [nM]
COc1ccc([C@H]2O[C@H](CC(=O)O)C(=O)N([C@H](CSC(C)(C)C)C3CC3)[C@@H]2c2ccc(Cl)cc2)cc1Cl (single isomer, unassigned) [Example 328, 2-((2R,5R,6R)-4-((S)-2-(tert-Butylthio)-1-cyclopropylethyl)-6-(3-chloro-4-methoxyphenyl)-5-(4-chlorophenyl)-3-oxomorpholin-2-yl)acetic acid or 2-((2S,5R,6R)-4-((S)-2-(tert-butylthio)-1-cyclopropylethyl)-6-(3-chloro-4-methoxyphenyl)-5-(4-chlorophenyl)-3-oxomorpholin-2-yl)acetic acid]	12
CC[C@@H](CN(c1ccccc1F)S(=O)(=O)C1CC1)N1C(=O)[C@@](C)(CC(=O)O)O[C@H](c2cccc(Cl)c2)[C@H]1c1ccc(Cl)cc1 (single isomer, unassigned) [Example 329, 2-((2R,5R,6R)-6-(3-Chlorophenyl)-5-(4-chlorophenyl)-4-((S)-1-(N-(2-fluorophenyl)cyclopropanesulfonamido)butan-2-yl)-2-methyl-3-oxomorpholin-2-yl)acetic acid or 2-((2S,5R,6R)-6-(3-chlorophenyl)-5-(4-chlorophenyl)-4-((S)-1-(N-(2-fluorophenyl)cyclopropanesulfonamido)butan-2-yl)-2-methyl-3-oxomorpholin-2-yl)acetic acid]	138
CC[C@@H](CN(c1ccccc1F)S(=O)(=O)C1CC1)N1C(=O)[C@@](C)(CC(=O)O)O[C@H](c2cccc(Cl)c2)[C@H]1c1ccc(Cl)cc1 (single isomer, unassigned) [Example 330, 2-((2R,5R,6R)-6-(3-Chlorophenyl)-5-(4-chlorophenyl)-4-((S)-1-(N-(2-fluorophenyl)cyclopropanesulfonamido)butan-2-yl)-2-methyl-3-oxomorpholin-2-yl)acetic acid or 2-((2S,5R,6R)-6-(3-chlorophenyl)-5-(4-chlorophenyl)-4-((S)-1-(N-(2-fluorophenyl)cyclopropanesulfonamido)butan-2-yl)-2-methyl-3-oxomorpholin-2-yl)acetic acid]	1
C[C@]1(CC(=O)O)O[C@H](c2cccc(Cl)c2)[C@@H](c2ccc(Cl)cc2)N([C@H](CN(c2ccccc2F)S(=O)(=O)C2CC2)C2CC2)C1=O (single isomer, unassigned) [Example 331, 2-((2R,5R,6R)-6-(3-Chlorophenyl)-5-(4-chlorophenyl)-4-((S)-1-cyclopropyl-2-(N-(2-fluorophenyl)cyclopropanesulfonamido)ethyl)-2-methyl-3-oxomorpholin-2-yl)acetic acid or 2-((2S,5R,6R)-6-(3-chlorophenyl)-5-(4-chlorophenyl)-4-((S)-1-cyclopropyl-2-(N-(2-fluorophenyl)cyclopropanesulfonamido)ethyl)-2-methyl-3-oxomorpholin-2-yl)acetic acid]	< 1
C[C@]1(CC(=O)O)O[C@H](c2cccc(Cl)c2)[C@@H](c2ccc(Cl)cc2)N([C@H](CN(c2ccccc2F)S(=O)(=O)C2CC2)C2CC2)C1=O (single isomer, unassigned) [Example 332, 2-((2R,5R,6R)-6-(3-Chlorophenyl)-5-(4-chlorophenyl)-4-((S)-1-cyclopropyl-2-(N-(2-fluorophenyl)cyclopropanesulfonamido)ethyl)-2-methyl-3-oxomorpholin-2-yl)acetic acid or 2-((2S,5R,6R)-6-(3-chlorophenyl)-5-(4-chlorophenyl)-4-((S)-1-cyclopropyl-2-(N-(2-fluorophenyl)cyclopropanesulfonamido)ethyl)-2-methyl-3-oxomorpholin-2-yl)acetic acid]	27
O=C(O)C[C@@]1(CC(F)(F)F)O[C@H](c2cccc(Cl)c2)[C@@H](c2ccc(Cl)cc2)N([C@H](CN(c2ccccc2F)S(=O)(=O)C2CC2)C2CC2)C1=O (single isomer, unassigned) [Example 333, 2-((2S,5R,6R)-6-(3-Chlorophenyl)-5-(4-chlorophenyl)-4-((S)-1-cyclopropyl-2-(N-(2-fluorophenyl)cyclopropanesulfonamido)ethyl)-3-oxo-2-(2,2,2-trifluoroethyl)morpholin-2-yl)acetic acid or 2-((2R,5R,6R)-6-(3-chlorophenyl)-5-(4-chlorophenyl)-4-((S)-1-cyclopropyl-2-(N-(2-fluorophenyl)cyclopropanesulfonamido)ethyl)-3-oxo-2-(2,2,2-trifluoroethyl)morpholin-2-yl)acetic acid]	199
CC(C)(C)S(=O)(=O)C[C@H](C1CC1)N1C(=O)[C@@](C)(CC(=O)O)O[C@H](c2cccc(Cl)c2)[C@H]1c1ccc(Cl)cc1 (single isomer, unassigned) [Example 334, 2-((2R,5R,6R)-4-((S)-2-(tert-Butylsulfonyl)-1-cyclopropylethyl)-6-(3-chlorophenyl)-5-(4-chlorophenyl)-2-methyl-3-oxomorpholin-2-yl)acetic acid or 2-((2S,5R,6R)-4-((S)-2-(tert-butylsulfonyl)-1-cyclopropylethyl)-6-(3-chlorophenyl)-5-(4-chlorophenyl)-2-methyl-3-oxomorpholin-2-yl)acetic acid]	< 1
CC(C)(C)S(=O)(=O)C[C@H](C1CC1)N1C(=O)[C@@](C)(CC(=O)O)O[C@H](c2cccc(Cl)c2)[C@H]1c1ccc(Cl)cc1 (single isomer, unassigned) [Example 335, 2-((2R,5R,6R)-4-((S)-2-(tert-Butylsulfonyl)-1-cyclopropylethyl)-6-(3-chlorophenyl)-5-(4-chlorophenyl)-2-methyl-3-oxomorpholin-2-yl)acetic acid or 2-((2S,5R,6R)-4-((S)-2-(tert-butylsulfonyl)-1-cyclopropylethyl)-6-(3-chlorophenyl)-5-(4-chlorophenyl)-2-methyl-3-oxomorpholin-2-yl)acetic acid]	3
C[C@H]1CCCN1S(=O)(=O)C[C@H](C1CC1)N1C(=O)[C@@](C)(CC(=O)O)O[C@H](c2cccc(Cl)c2)[C@H]1c1ccc(Cl)cc1 (single isomer, unassigned) [Example 336, 2-((2R,5R,6R)-6-(3-Chlorophenyl)-5-(4-chlorophenyl)-4-((S)-1-cyclopropyl-2-(((S)-2-methylpyrrolidin-1-yl)sulfonyl)ethyl)-2-methyl-3-oxomorpholin-2-yl)acetic acid or 2-((2S,5R,6R)-6-(3-chlorophenyl)-5-(4-chlorophenyl)-4-((S)-1-cyclopropyl-2-(((S)-2-methylpyrrolidin-1-yl)sulfonyl)ethyl)-2-methyl-3-oxomorpholin-2-yl)acetic acid]	< 1
C[C@H]1CCCN1S(=O)(=O)C[C@H](C1CC1)N1C(=O)[C@@](C)(CC(=O)O)O[C@H](c2cccc(Cl)c2)[C@H]1c1ccc(Cl)cc1 (single isomer, unassigned) [Example 337, 2-((2R,5R,6R)-6-(3-Chlorophenyl)-5-(4-chlorophenyl)-4-((S)-1-cyclopropyl-2-(((S)-2-methylpyrrolidin-1-yl)sulfonyl)ethyl)-2-methyl-3-oxomorpholin-2-yl)acetic acid or 2-((2S,5R,6R)-6-(3-chlorophenyl)-5-(4-chlorophenyl)-4-((S)-1-cyclopropyl-2-(((S)-2-methylpyrrolidin-1-yl)sulfonyl)ethyl)-2-methyl-3-oxomorpholin-2-yl)acetic acid]	50
CC(C)(C)S(=O)(=O)C[C@H](CC(F)(F)F)N1C(=O)[C@@](C)(CC(=O)O)O[C@H](c2cccc(Cl)c2)[C@H]1c1ccc(Cl)cc1 (single isomer, unassigned) [Example 340, 2-((2R,5R,6R)-4-((S)-1-(tert-Butylsulfonyl)-4,4,4-trifluorobutan-2-yl)-6-(3-chlorophenyl)-5-(4-chlorophenyl)-2-methyl-3-oxomorpholin-2-yl)acetic acid or 2-((2S,5R,6R)-4-((S)-1-(tert-butylsulfonyl)-4,4,4-trifluorobutan-2-yl)-6-(3-chlorophenyl)-5-(4-chlorophenyl)-2-methyl-3-oxomorpholin-2-yl)acetic acid]	28
CC(C)(C)S(=O)(=O)C[C@H](CC(F)(F)F)N1C(=O)[C@@](C)(CC(=O)O)O[C@H](c2cccc(Cl)c2)[C@H]1c1ccc(Cl)cc1 (single isomer, unassigned) [Example 341, 2-((2R,5R,6R)-4-((S)-1-(tert-Butylsulfonyl)-4,4,4-trifluorobutan-2-yl)-6-(3-chlorophenyl)-5-(4-chlorophenyl)-2-methyl-3-oxomorpholin-2-yl)acetic acid or 2-((2S,5R,6R)-4-((S)-1-(tert-butylsulfonyl)-4,4,4-trifluorobutan-2-yl)-6-(3-chlorophenyl)-5-(4-chlorophenyl)-2-methyl-3-oxomorpholin-2-yl)acetic acid]	< 1
CC[C@]1(CC(=O)O)O[C@H](c2cccc(Cl)c2)[C@@H](c2ccc(Cl)cc2)N([C@@H](CC(F)(F)F)CS(=O)(=O)C(C)(C)C)C1=O (single isomer, unassigned) [Example 342, 2-((2R,5R,6R)-4-((S)-1-(tert-Butylsulfonyl)-4,4,4-trifluorobutan-2-yl)-6-(3-chlorophenyl)-5-(4-chlorophenyl)-2-ethyl-3-oxomorpholin-2-yl)acetic acid or 2-((2S,5R,6R)-4-((S)-1-(tert-butylsulfonyl)-4,4,4-trifluorobutan-2-yl)-6-(3-chlorophenyl)-5-(4-chlorophenyl)-2-ethyl-3-oxomorpholin-2-yl)acetic acid]	104
CC[C@]1(CC(=O)O)O[C@H](c2cccc(Cl)c2)[C@@H](c2ccc(Cl)cc2)N([C@@H](CC(F)(F)F)CS(=O)(=O)C(C)(C)C)C1=O (single isomer, unassigned) [Example 343, 2-((2R,5R,6R)-4-((S)-1-(tert-Butylsulfonyl)-4,4,4-trifluorobutan-2-yl)-6-(3-chlorophenyl)-5-(4-chlorophenyl)-2-ethyl-3-oxomorpholin-2-yl)acetic acid or 2-((2S,5R,6R)-4-((S)-1-(tert-butylsulfonyl)-4,4,4-trifluorobutan-2-yl)-6-(3-chlorophenyl)-5-(4-chlorophenyl)-2-ethyl-3-oxomorpholin-2-yl)acetic acid]	1
